Values after ≈ are worked out from the molar mass of the structure shown. Like-named read-outs stand apart in the source and are kept apart here.
What was measured:
[1] = test system: M. tuberculosis H37Rv; assay: microbe, parasite or virus in culture; assay type: cell-based; conditions: Mycobacterium tuberculosis
[2] = test system: TrpE; parameters: method as in Negatu et al., 2019; conditions: ref Negatu et al., 2019; read-out: IC50 TrpE (allosteric inhibition); cited from earlier work
[3] = test system: M. smegmatis mc2155; assay: microbe, parasite or virus in culture; assay type: cell-based, Mycobacterium smegmatis; conditions: for MIC: Mycolicibacterium smegmatis, MC2155, read-out: MIC vs M. smegmatis mc2155
[4] = test system: M. bovis BCG; assay: microbe, parasite or virus in culture; assay type: cell-based, Mycobacterium bovis BCG
[5] = molecular target: T1, TrpAB WT (Mycobacterium tuberculosis, UniProt P9WFX9+P9WFY1); assay type: biochemical
T1 construct: His6 (N); made in house; host or cells: E. coli BL21(DE3)

[6] = molecular target: T2, TrpAB β reaction (Mycobacterium tuberculosis, UniProt P9WFX9+P9WFY1); assay: biochemical; assay type: biochemical
T2 construct: His6 (N); made in house; host or cells: E. coli BL21(DE3)

[7] = test system: J774 macrophages; conditions: 24 hrs, CellTiter-Glo
[8] = test system: intracellular Mtb H37Rv in J774 macrophages; assay type: cell-based, Mycobacterium tuberculosis
[9] = molecular target: T3, TrpE WT (Mycobacterium tuberculosis, UniProt P9WFX3); assay type: biochemical
T3 construct: His6 (N); made in house; host or cells: E. coli BL21(DE3)
T3 sequence (P9WFX3 1-516): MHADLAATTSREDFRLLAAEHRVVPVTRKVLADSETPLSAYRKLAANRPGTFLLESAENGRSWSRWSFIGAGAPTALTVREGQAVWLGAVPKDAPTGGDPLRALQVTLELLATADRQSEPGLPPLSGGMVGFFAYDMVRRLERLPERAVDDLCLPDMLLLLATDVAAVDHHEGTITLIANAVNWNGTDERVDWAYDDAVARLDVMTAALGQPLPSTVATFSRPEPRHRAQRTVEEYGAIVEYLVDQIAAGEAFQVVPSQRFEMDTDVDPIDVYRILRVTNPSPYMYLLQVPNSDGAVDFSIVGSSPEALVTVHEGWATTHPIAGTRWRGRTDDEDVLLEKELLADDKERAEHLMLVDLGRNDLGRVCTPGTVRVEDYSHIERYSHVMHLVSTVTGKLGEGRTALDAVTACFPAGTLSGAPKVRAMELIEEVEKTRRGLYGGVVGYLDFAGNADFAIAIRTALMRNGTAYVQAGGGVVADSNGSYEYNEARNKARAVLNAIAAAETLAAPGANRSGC

[10] = test system: Mtb; assay type: cell-based, Mycobacterium tuberculosis
[11] = molecular target: T4, TrpAB α reaction (Mycobacterium tuberculosis, UniProt P9WFX9+P9WFY1); assay: biochemical
T4 construct: His6 (N); made in house; host or cells: E. coli BL21(DE3)
T4 sequence (P9WFX9 whole entry): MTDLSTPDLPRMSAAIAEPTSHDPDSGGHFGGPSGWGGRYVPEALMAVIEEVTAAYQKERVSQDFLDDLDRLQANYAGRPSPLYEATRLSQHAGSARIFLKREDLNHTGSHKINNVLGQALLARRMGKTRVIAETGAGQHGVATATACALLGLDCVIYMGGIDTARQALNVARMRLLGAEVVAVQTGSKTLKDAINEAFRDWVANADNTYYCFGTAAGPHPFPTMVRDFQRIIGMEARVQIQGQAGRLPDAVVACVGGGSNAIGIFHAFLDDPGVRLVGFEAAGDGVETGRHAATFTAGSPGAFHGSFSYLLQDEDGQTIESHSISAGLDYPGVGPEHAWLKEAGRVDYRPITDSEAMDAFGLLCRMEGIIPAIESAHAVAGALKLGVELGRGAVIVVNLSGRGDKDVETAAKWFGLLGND
T4 sequence (P9WFY1 whole entry): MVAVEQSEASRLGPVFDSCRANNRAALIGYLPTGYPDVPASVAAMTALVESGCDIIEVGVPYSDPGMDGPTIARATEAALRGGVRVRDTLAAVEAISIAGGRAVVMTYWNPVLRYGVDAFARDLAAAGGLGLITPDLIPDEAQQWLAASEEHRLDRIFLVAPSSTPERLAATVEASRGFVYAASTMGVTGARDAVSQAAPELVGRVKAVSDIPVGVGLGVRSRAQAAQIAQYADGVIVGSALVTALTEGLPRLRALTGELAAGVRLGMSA

T2 sequence (P9WFX9 whole entry): as the sequence (P9WFX9 whole entry) above
T2 sequence (P9WFY1 whole entry): as the sequence (P9WFY1 whole entry) above
T1 sequence (P9WFX9 whole entry): as the sequence (P9WFX9 whole entry) above
T1 sequence (P9WFY1 whole entry): as the sequence (P9WFY1 whole entry) above

FC(F)(F)COc1ccc(CNc2cccc3[nH]ccc23)cn1 [C10, N-((6-(2,2,2-trifluoroethoxy)pyridin-3-yl)methyl)-1H-indol-4-amine]
MIC [1]: 50 µM (≈ 16.1 µg/mL)

O=C(Nc1cccc2[nH]ccc12)c1ccc(OCC(F)(F)F)nn1 [C16, N-(1H-indol-4-yl)-6-(2,2,2-trifluoroethoxy)pyridazine-3-carboxamide]
MIC ([1]; read-out: MIC): 2.3 µM (≈ 0.773 µg/mL)

CN(CC(F)(F)F)c1ccc(C(=O)Nc2cccc3[nH]ccc23)cn1 [C20, N-(1H-indol-4-yl)-6-(methyl(2,2,2-trifluoroethyl)amino)nicotinamide]
MIC ([1]; read-out: MIC): 4.7 µM (≈ 1.64 µg/mL)

O=C(Nc1ccc2cc[nH]c2c1)c1ccc(OCC(F)(F)F)nc1 [C7, N-(1H-indol-6-yl)-6-(2,2,2-trifluoroethoxy)nicotinamide]
MIC [1]: 50 µM (≈ 16.8 µg/mL)

O=C(O)COc1ccccc1 [C2-COOH, 2-phenoxyacetic acid]
MIC [1]: > 100 µM

O=C(Nc1cccc2c1CCN2)c1ccc(OCC(F)(F)F)nc1 [C12, N-(indolin-4-yl)-6-(2,2,2-trifluoroethoxy)nicotinamide]
MIC [1]: 50 µM (≈ 16.9 µg/mL)

Cn1ccc2c(NC(=O)c3ccc(OCC(F)(F)F)nc3)cccc21 [C9, N-(1-methyl-1H-indol-4-yl)-6-(2,2,2-trifluoroethoxy)nicotinamide]
MIC [1]: 50 µM (≈ 17.5 µg/mL)

N[C@@H](Cc1c[nH]c2ccc(F)cc12)C(=O)O [5-fluorotryptophan]
IC50 [2]: 4 µM

Cc1ccc(OCC(=O)Nc2cccc3[nH]ccc23)cc1 [C17, N-(1H-indol-4-yl)-2-(p-tolyloxy)acetamide]
MIC ([1]; read-out: MIC): 1.56 µM (≈ 0.437 µg/mL)

O=C(Nc1cccc2cc[nH]c12)c1ccc(OCC(F)(F)F)nc1 [C8, N-(1H-indol-7-yl)-6-(2,2,2-trifluoroethoxy)nicotinamide]
MIC [1]: 9.4 µM (≈ 3.15 µg/mL)

O=C(Nc1cccc2[nH]ccc12)C1CCCCC1 [C3, N-(1H-indol-4-yl)cyclohexanecarboxamide]
MIC ([1]; read-out: MIC): 12.5 µM (≈ 3.03 µg/mL) | MIC [3]: > 100 µM | MIC vs M. bovis BCG [4]: 50 µM (≈ 12.1 µg/mL) | MIC ([4]; Mycobacterium tuberculosis variant bovis BCG, BCG, read-out: MIC vs M. bovis BCG): > 100 µM

O=C(COCC1CC1)Nc1cccc2[nH]ccc12 [C18, 2-(cyclopropylmethoxy)-N-(1H-indol-4-yl)acetamide]
MIC ([1]; read-out: MIC): 3.13 µM (≈ 0.765 µg/mL)

Cc1ccc(C(=O)Nc2cccc3[nH]ccc23)o1 [C21, N-(1H-indol-4-yl)-5-methylfuran-2-carboxamide]
MIC ([1]; read-out: MIC): 6.25 µM (≈ 1.5 µg/mL)

N[C@@H](CO)C(=O)O [L-Ser, L-serine]
Km ([5]; read-out: apparent KM L-Ser): 550 ± 230 µM | Km ([6]; read-out: KM L-Ser of TrpAB β-half reaction): 2900 ± 300 µM

O=C(Nc1ccc2[nH]ccc2c1)c1ccc(OCC(F)(F)F)nc1 [C6, N-(1H-indol-5-yl)-6-(2,2,2-trifluoroethoxy)nicotinamide]
MIC [1]: 50 µM (≈ 16.8 µg/mL)

O=C(Nc1cccc2[nH]cnc12)c1ccc(OCC(F)(F)F)cn1 [C14, N-(1H-benzo[d]imidazol-4-yl)-5-(2,2,2-trifluoroethoxy)picolinamide]
MIC ([1]; read-out: MIC): 50 µM (≈ 16.8 µg/mL)

O=C(O)c1ccc(OCC(F)(F)F)cn1 [C4-COOH, 5-(2,2,2-trifluoroethoxy)picolinic acid]
MIC [1]: > 100 µM

O=C(Nc1cccc2[nH]ccc12)c1ccc(OCC(F)(F)F)cn1 [C4, N-(1H-indol-4-yl)-5-(2,2,2-trifluoroethoxy)picolinamide]
MIC [3]: > 100 µM

N-(1H-indol-4-yl)-6-(2,2,2-trifluoroethoxy)nicotinamide [C1]
MIC vs M. smegmatis mc2155 [3]: > 100 µM | toxicity to J774 macrophages [7]: not toxic | reduction in intracellular Mtb titer [8]: 1.5 log | IC50 [9]: 242 ± 53 µM

O=P(O)(O)OC[C@@H](O)[C@H](O)c1c[nH]c2ccccc12 [IGP, indole-3-glycerol phosphate]
Km ([5]; read-out: apparent KM IGP): 76.9 ± 1.1 µM

CNS(=O)(=O)c1ccc2c(c1)CCN2C(=O)c1ccc(C)s1 [C5, reference compound]
MIC ([1]; read-out: MIC): 0.39 µM (≈ 0.131 µg/mL) | potency with exogenous indole or L-Trp [10]: significantly attenuated | IC50 [11]: 0.1 ± 0.06 µM | IC50 [6]: 0.37 ± 0.07 µM

O=C(O)C1CCCCC1 [C3-COOH, cyclohexanecarboxylic acid]
MIC [1]: > 100 µM

NNC(=O)c1ccncc1 [INH, isoniazid, reference compound]
MIC ([1]; read-out: MIC): 0.16 µM (≈ 0.0219 µg/mL)

O=C(Nc1ccnc2[nH]ccc12)c1ccc(OCC(F)(F)F)cn1 [C15, N-(1H-pyrrolo[2,3-b]pyridin-4-yl)-5-(2,2,2-trifluoroethoxy)picolinamide]
MIC ([1]; read-out: MIC): 50 µM (≈ 16.8 µg/mL)

Nc1cccc2[nH]ccc12 [4-AI, 4-aminoindole, reference compound]
MIC [1]: 4.68 µM (≈ 0.619 µg/mL) | MIC ([1]; read-out: MIC against Mtb): 4.68 µM (≈ 0.619 µg/mL) | increase of MIC on supplementation [10]: 4- to 16 fold | IC50 [11]: 631 ± 174 µM | IC50 [6]: 649.4 ± 2.5 µM

Nc1cccc2[nH]cc(C[C@H](N)C(=O)O)c12 [4-aTrp, 4-amino-L-tryptophan]
MIC ([1]; read-out: MIC against Mtb): > 100 µM

CN(C(=O)c1ccc(OCC(F)(F)F)nc1)c1cccc2[nH]ccc12 [C13, N-(1H-indol-4-yl)-N-methyl-6-(2,2,2-trifluoroethoxy)nicotinamide]
MIC ([1]; read-out: MIC): 25 µM (≈ 8.73 µg/mL)

O=C(Nc1ccc(OCC(F)(F)F)nc1)c1cccc2[nH]ccc12 [C11, N-(6-(2,2,2-trifluoroethoxy)pyridine-3-yl)-1H-indole-4-carboxamide]
MIC [1]: 50 µM (≈ 16.8 µg/mL)

O=C(O)c1ccc(OCC(F)(F)F)nc1 [C1-COOH, 6-(2,2,2-trifluoroethoxy)nicotinic acid]
MIC [1]: 50 µM (≈ 11.1 µg/mL)

O=C(COc1ccccc1)Nc1cccc2[nH]ccc12 [C2, N-(1H-indol-4-yl)-2-phenoxyacetamide]
MIC [3]: > 100 µM

O=C(Nc1cccc2[nH]ccc12)[C@H]1C[C@@H](Oc2ccccc2)C1 [C19, (1s,3s)-N-(1H-indol-4-yl)-3-phenoxycyclobutane-1-carboxamide]
MIC ([1]; read-out: MIC): 3.13 µM (≈ 0.959 µg/mL)
